US4076814A, “Preventive and curative compositions against mycoplasmosis” (Sankyo Company Limited, priority 1975, dated 1978)
In brackets after ≈: the same amount, converted by molar mass.

Assays:
Format in all cases: cell-based
Mycoplasma gallisepticum = test: Antimicrobial test, conventional agar plate dilution method, Mycoplasma gallisepticum; details: for MIC: Mycoplasmoides gallisepticum, read-out: Minimum Inhibitory Concentration, Mycoplasma gallisepticum
Text: (§1) ANTIMICROBIAL TEST AGAINST THREE STRAINS OF MYCOPLASMA
(§2) The test was effected by a conventional agar plate dilution method using the indicated strains of mycoplasma. The dithiocarbamic acid derivatives as shown below with Compound Nos. were employed in the test.

Mycoplasma pulmonis = test: Antimicrobial test, conventional agar plate dilution method, Mycoplasma pulmonis; details: for MIC: Mycoplasma, read-out: Minimum Inhibitory Concentration, Mycoplasma pulmonis
Text: as §1, §2

Mycoplasma hyorhinis = test: Antimicrobial test, conventional agar plate dilution method, Mycoplasma hyorhinis; details: for MIC: Mycoplasma, read-out: Minimum Inhibitory Concentration, Mycoplasma hyorhinis
Text: as §1, §2

| MIC (Mycoplasma gallisepticum) [µg/mL] | MIC (Mycoplasma pulmonis) [µg/mL] | MIC (Mycoplasma hyorhinis) [µg/mL] | Compound | Minimum Inhibitory Concentration, Mycoplasma gallisepticum (Mycoplasma gallisepticum) [µg/mL] | Minimum Inhibitory Concentration, Mycoplasma pulmonis (Mycoplasma pulmonis) [µg/mL] | Minimum Inhibitory Concentration, Mycoplasma hyorhinis (Mycoplasma hyorhinis) [µg/mL] |
| --- | --- | --- | --- | --- | --- | --- |
| 1.56 (≈ 5.24 µM) | 1.56 (≈ 5.24 µM) | 0.78 (≈ 2.62 µM) | Cc1cc(CSC(=S)N2CCOCC2)cc(C)c1O [compound 194, 4-Hydroxy-3,5-dimethylbenzyl 4-morpholinecarbodithioate] | – | – | – |
| 1.56 | 1.56 | 0.39 | Cc1cc(CSC(=S)N2CCN(C)CC2)cc(C)c1O.Cl [compound 196, 4-Hydroxy-3,5-dimethylbenzyl 4-methyl-1-piperazinecarbodithioate hydrochloride] | – | – | – |
| 0.39 (≈ 1.53 µM) | 0.39 (≈ 1.53 µM) | 0.2 (≈ 0.783 µM) | Cc1cc(C)c(O)c(CSC(=S)N(C)C)c1 [compound 197, 2-Hydroxy-3,5-dimethylbenzyl dimethyldithiocarbamate] | – | – | – |
| 0.39 (≈ 1.38 µM) | 0.39 (≈ 1.38 µM) | 0.2 (≈ 0.706 µM) | CCN(CC)C(=S)SCc1cc(C)cc(C)c1O [compound 198, 2-Hydroxy-3,5-dimethylbenzyl diethyldithiocarbamate] | – | – | – |
| – | – | – | CCN(CC)C(=S)SCc1cc(C)cc(C)c1O [compound 199, 2-Hydroxy-3,5-dimethylbenzyl diethyldithiocarbamate] | 0.39 | 0.39 | 0.39 |
| 0.1 (≈ 0.296 µM) | 0.1 (≈ 0.296 µM) | 0.1 (≈ 0.296 µM) | Cc1cc(CSC(=S)N2CCCCC2)cc(C(C)(C)C)c1O [compound 207, 4-Hydroxy-3-t-butyl-5-methylbenzyl 1-piperidinecarbodithioate] | – | – | – |
| 0.39 (≈ 1.1 µM) | 0.39 (≈ 1.1 µM) | 0.39 (≈ 1.1 µM) | CC(C)c1cc(CSC(=S)N2CCOCC2)cc(C(C)C)c1O [compound 210, 4-Hydroxy-3,5-di-isopropylbenzyl 4-morpholinecarbodithioate] | – | – | – |
| 0.78 (≈ 2.3 µM) | 0.78 (≈ 2.3 µM) | 0.39 (≈ 1.15 µM) | CN(C)C(=S)SCc1cc(C(C)(C)C)c(O)c(C(C)(C)C)c1 [compound 211, 4-Hydroxy-3,5-di-t-butylbenzyl dimethyldithio carbamate] | – | – | – |
| 1.56 (≈ 4.24 µM) | 1.56 (≈ 4.24 µM) | 1.56 (≈ 4.24 µM) | CCN(CC)C(=S)SCc1cc(C(C)(C)C)c(O)c(C(C)(C)C)c1 [compound 212, 4-Hydroxy-3,5-di-t-butylbenzyl diethyldithiocarbamate] | – | – | – |
| 0.78 (≈ 2.05 µM) | 0.39 (≈ 1.03 µM) | 0.39 (≈ 1.03 µM) | CC(C)(C)c1cc(CSC(=S)N2CCCCC2)cc(C(C)(C)C)c1O [compound 218, 4-Hydroxy-3,5-di-t-butylbenzyl 1-piperidinecarbodithioate] | – | – | – |
| 0.2 (≈ 0.524 µM) | 0.2 (≈ 0.524 µM) | 0.1 (≈ 0.262 µM) | CC(C)(C)c1cc(CSC(=S)N2CCOCC2)cc(C(C)(C)C)c1O [compound 219, 4-Hydroxy-3,5-di-t-butylbenzyl 4-morpholinecarbodithioate] | – | – | – |
| 0.78 (≈ 1.98 µM) | 0.78 (≈ 1.98 µM) | 0.78 (≈ 1.98 µM) | CC(C)(C)c1cc(CSC(=S)N2CCCCCC2)cc(C(C)(C)C)c1O [compound 220, 4-Hydroxy-3,5-di-t-butylbenzyl 1-hexamethyleneiminecarbodithioate] | – | – | – |
| 0.39 (≈ 0.856 µM) | 0.2 (≈ 0.439 µM) | 0.39 (≈ 0.856 µM) | CC(C)(C)c1cc(C(SC(=S)N2CCCCC2)c2ccccc2)cc(C(C)(C)C)c1O (stereo not drawn) [compound 225, 4-Hydroxy-3,5-di-t-butyl-α-phenylbenzyl 1-piperidinecarbodithioate] | – | – | – |
| 0.39 (≈ 1.19 µM) | 0.39 (≈ 1.19 µM) | 0.39 (≈ 1.19 µM) | COc1cc(CSC(=S)N2CCCCC2)cc(OC)c1O [compound 229, 4-Hydroxy-3,5-dimethoxybenzyl 1-piperidinecarbodithioate] | – | – | – |
| 1.56 (≈ 4.74 µM) | 1.56 (≈ 4.74 µM) | 0.78 (≈ 2.37 µM) | COc1cc(CSC(=S)N2CCOCC2)cc(OC)c1O [compound 230, 4-Hydroxy-3,5-dimethoxybenzyl 4-morpholinecarbodithioate] | – | – | – |
| 0.39 (≈ 1.32 µM) | 0.39 (≈ 1.32 µM) | 0.2 (≈ 0.675 µM) | CN(C)C(=S)SCc1cc(Cl)c(O)c(Cl)c1 [compound 232, 4-Hydroxy-3,5-dichlorobenzyl dimethyldithiocarbamate] | – | – | – |
| 3.13 (≈ 9.31 µM) | 3.13 (≈ 9.31 µM) | 1.56 (≈ 4.64 µM) | Oc1c(Cl)cc(CSC(=S)N2CCCCC2)cc1Cl [compound 234, 4-Hydroxy-3,5-dichlorobenzyl 1-piperidinecarbodithioate] | – | – | – |
| 1.56 (≈ 4.61 µM) | 1.56 (≈ 4.61 µM) | 1.56 (≈ 4.61 µM) | Oc1c(Cl)cc(CSC(=S)N2CCOCC2)cc1Cl [compound 235, 4-Hydroxy-3,5-dichlorobenzyl 4-morpholinecarbodithioate] | – | – | – |
| 0.2 (≈ 0.67 µM) | 0.2 (≈ 0.67 µM) | 0.2 (≈ 0.67 µM) | Cc1cc(CSC(=S)N(C)C)cc(CN(C)C)c1O [compound 236, 4-Hydroxy-3-dimethylaminomethyl-5-methylbenzyl dimethyldithiocarbamate] | – | – | – |

| MIC (Mycoplasma gallisepticum) [µg/mL] | MIC (Mycoplasma pulmonis) [µg/mL] | MIC (Mycoplasma hyorhinis) [µg/mL] | Compound | Minimum Inhibitory Concentration, Mycoplasma gallisepticum (Mycoplasma gallisepticum) [µg/mL] | Minimum Inhibitory Concentration, Mycoplasma pulmonis (Mycoplasma pulmonis) [µg/mL] | Minimum Inhibitory Concentration, Mycoplasma hyorhinis (Mycoplasma hyorhinis) [µg/mL] |
| --- | --- | --- | --- | --- | --- | --- |
| 0.2 | 0.2 | 0.2 | CCCc1cc(CSC(=S)N(C)C)cc(CN(C)C)c1O.Cl [compound 238, 4-Hydroxy-3-dimethylaminomethyl5-n-propylbenzyl dimethyldithiocarbamate hydrochloride] | – | – | – |
| 0.39 | 0.39 | 0.2 | CCC(C)c1cc(CSC(=S)N(C)C)cc(CN(C)C)c1O.Cl (stereo not drawn) [compound 240, 4-Hydroxy-3-dimethylaminomethyl-5-sec-butylbenzyl dimethyldithiocarbamate hydrochloride] | – | – | – |
| 0.78 (≈ 2.12 µM) | 0.39 (≈ 1.06 µM) | 0.39 (≈ 1.06 µM) | CCN(CC)C(=S)SCc1cc(CN(C)C)c(O)c(C(C)(C)C)c1 [compound 241, 4-Hydroxy-3-dimethylaminomethyl-5-t-butylbenzyl diethyldithiocarbamate] | – | – | – |
| 0.1 (≈ 0.317 µM) | 0.1 (≈ 0.317 µM) | 0.1 (≈ 0.317 µM) | CCN(CC)C(=S)SCc1cc(CO)cc(OC)c1O [compound 242, 2-Hydroxy-3-methoxy-5-hydroxymethylbenzyl diethyldithiocarbamate] | – | – | – |
| 0.39 (≈ 1.2 µM) | 0.2 (≈ 0.614 µM) | 0.39 (≈ 1.2 µM) | CC=Cc1cc(CSC(=S)N(CC)CC)c(O)c(OC)c1 [compound 246, 2-Hydroxy-3-methoxy-5-propenylbenzyl diethyldithiocarbamate] | – | – | – |
| 0.78 (≈ 2.08 µM) | 0.78 (≈ 2.08 µM) | 0.39 (≈ 1.04 µM) | Cc1cc(O)c(CSC(=S)N(C)C)cc1CSC(=S)N(C)C [compound 247, 4-Hydroxy-5-dimethylthiocarbamoylthiomethyl-2-methylbenzyl dimethyldithiocarbamate] | – | – | – |
| 0.1 (≈ 0.248 µM) | 0.1 (≈ 0.248 µM) | 0.2 (≈ 0.497 µM) | CCCc1cc(CSC(=S)N(C)C)cc(CSC(=S)N(C)C)c1O [compound 248, 4-Hydroxy-5-dimethylthiocarbamoylthiomethyl-3-n-propylbenzyl dimethyldithiocarbamate] | – | – | – |
| 0.2 (≈ 0.48 µM) | 0.2 (≈ 0.48 µM) | 0.2 (≈ 0.48 µM) | CCC(C)c1cc(CSC(=S)N(C)C)cc(CSC(=S)N(C)C)c1O (stereo not drawn) [compound 250, 4-Hydroxy-5-dimethylthiocarbamoylthiomethyl-3-sec-butylbenzyl dimethyldithiocarbamate] | – | – | – |
| 0.2 (≈ 0.48 µM) | 0.1 (≈ 0.24 µM) | 0.2 (≈ 0.48 µM) | CN(C)C(=S)SCc1cc(CSC(=S)N(C)C)c(O)c(C(C)(C)C)c1 [compound 251, 2-Hydroxy-5-dimethylthiocarbamoylthiomethyl-3-t-butylbenzyl dimethyldithiocarbamate] | – | – | – |
| 0.39 (≈ 1.42 µM) | 0.39 (≈ 1.42 µM) | 0.39 (≈ 1.42 µM) | CN(C)C(=S)SCc1oc(CO)cc(=O)c1O [compound 254, 5-Hydroxy-2-hydroxymethyl-4-oxo-4H-pyran-6-ylmethyl dimethyldithiocarbamate] | – | – | – |
| 0.05 (≈ 0.165 µM) | 0.1 (≈ 0.33 µM) | 0.05 (≈ 0.165 µM) | CCN(CC)C(=S)SCc1oc(CO)cc(=O)c1O [compound 255, 5-Hydroxy-2-hydroxymethyl-4-oxo-4H-pyran-6-ylmethyl diethyldithiocarbamate] | – | – | – |
| 0.78 (≈ 2.59 µM) | 0.78 (≈ 2.59 µM) | 0.39 (≈ 1.29 µM) | O=c1cc(CO)oc(CSC(=S)N2CCCC2)c1O [compound 258, 5-Hydroxy-2-hydroxymethyl-4-oxo-4H-pyran-6-ylmethyl-1-pyrrolidinecarbodithioate] | – | – | – |
| 3.13 (≈ 9.92 µM) | 3.13 (≈ 9.92 µM) | 3.13 (≈ 9.92 µM) | O=c1cc(CO)oc(CSC(=S)N2CCCCC2)c1O [compound 261, 5-Hydroxy-2-hydroxymethyl-4-oxo-4H-pyran-6-ylmethyl-1-piperidinecarbodithioate] | – | – | – |
| 0.2 (≈ 0.63 µM) | 0.78 (≈ 2.46 µM) | 0.78 (≈ 2.46 µM) | O=c1cc(CO)oc(CSC(=S)N2CCOCC2)c1O [compound 262, 5-Hydroxy-2-hydroxymethyl-4-oxo-4H-pyran-6-ylmethyl-4-morpholinecarbodithioate] | – | – | – |
| 1.56 (≈ 4.72 µM) | 3.13 (≈ 9.47 µM) | 3.13 (≈ 9.47 µM) | CN1CCN(C(=S)SCc2oc(CO)cc(=O)c2O)CC1 [compound 263, 5-Hydroxy-2-hydroxymethyl-4-oxo-4H-pyran-6-ylmethyl-4-methyl-1-piperazinecarbodithioate] | – | – | – |
| 0.39 (≈ 0.82 µM) | 0.39 (≈ 0.82 µM) | 0.39 (≈ 0.82 µM) | Cc1cc2c(c(O)c1CSC(=S)N(C)C)C1OCC34CCCC(C)(C)C3CCC(C)(O2)C14 (stereo not drawn) [compound 265, 16-Dimethylthiocarbamoylthiomethylsiccanin] | – | – | – |
| 0.1 (≈ 0.199 µM) | 0.1 (≈ 0.199 µM) | 0.1 (≈ 0.199 µM) | CCN(CC)C(=S)SCc1c(C)cc2c(c1O)C1OCC34CCCC(C)(C)C3CCC(C)(O2)C14 (stereo not drawn) [compound 266, 16-Diethylthiocarbamoylthiomethylsiccanin] | – | – | – |
| 1.56 (≈ 3.01 µM) | 1.56 (≈ 3.01 µM) | 1.56 (≈ 3.01 µM) | Cc1cc2c(c(O)c1CSC(=S)N1CCOCC1)C1OCC34CCCC(C)(C)C3CCC(C)(O2)C14 (stereo not drawn) [compound 271, 16-(4-Morpholinethiocarbonylthiomethyl)siccanin] | – | – | – |
| 0.39 (≈ 0.735 µM) | 0.39 (≈ 0.735 µM) | 0.39 (≈ 0.735 µM) | Cc1cc2c(c(O)c1CSC(=S)N1CCN(C)CC1)C1OCC34CCCC(C)(C)C3CCC(C)(O2)C14 (stereo not drawn) [compound 272, 16-(4-Methyl-1-piperazinethiocarbonylthiomethyl)-siccanin] | – | – | – |
